Data reported in patent US10800792B2, “Inhibitors of Bruton's tyrosine kinase and method of their use” (JANSSEN PHARMACEUTICA NV, priority 2015, dated 2020).

These molecules were tested against unphosphorylated-BTK kinase domain (UP-BTK), GST-tagged human BTK (389-659aa) (Homo sapiens (Human), UniProt Q06187) (assay: BTK kinase Lanthascreen binding assay). Settings: Lanthascreen tracer competition, 60 minutes incubation; pIC50 = negative log of the IC50 in molar.
How it was run: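 Values are pIC50, i.e. negative log of IC50 in molar, derived from concentration–response fitting. Each compound competes with a fluorescently labelled tracer for the unphosphorylated kinase domain.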

unphosphorylated-BTK kinase domain (UP-BTK), GST-tagged human BTK (389-659aa), sequence (Q06187 389-659): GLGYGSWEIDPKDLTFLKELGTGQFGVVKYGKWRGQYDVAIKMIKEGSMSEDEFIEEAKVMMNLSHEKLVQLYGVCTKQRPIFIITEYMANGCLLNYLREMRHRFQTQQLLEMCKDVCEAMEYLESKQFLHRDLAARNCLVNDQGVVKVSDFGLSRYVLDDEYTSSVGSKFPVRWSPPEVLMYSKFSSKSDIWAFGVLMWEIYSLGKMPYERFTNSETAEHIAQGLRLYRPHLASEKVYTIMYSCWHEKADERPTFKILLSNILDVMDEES

Point of comparison: `C=CC(=O)N1C[C@@H](O)[C@@H](NC(=O)c2sc3nccc4c3c2NC(=O)N4c2ccnc(-c3ccccc3)c2)C1` [Example 718, N-((3S,4R)-1-Acryloyl-4-hydroxypyrrolidin-3-yl)-4-oxo-5-(2-phenylpyridin-4-yl)-4,5-dihydro-3H-1-thia-3,5,8-triazaacenaphthylene-2-carboxamide], “BTK_I_binding pIC50” value 6.3. Against it:
- Cc1cc(Oc2ccccc2)ccc1N1C(=O)Nc2c(NC(=O)C3CCCN(C(=O)/C(C#N)=C/C4CC4)C3)sc3nccc1c23 (centres unmarked) [Example 801, (E)-1-(2-Cyano-3-cyclopropylacryloyl)-N-(5-(2-methyl-4-phenoxyphenyl)-4-oxo-4,5-dihydro-3H-1-thia-3,5,8-triazaacenaphthylen-2-yl)piperidine-3-carboxamide] — within 0.2 log units, 6.2
- O=C(N[C@@H]1CCNC1)c1sc2nccc3c2c1NC(=O)N3c1ccc(Oc2ccccc2)nc1 [Example 741, (R)-4-Oxo-5-(6-phenoxypyridin-3-yl)-N-(pyrrolidin-3-yl)-4,5-dihydro-3H-1-thia-3,5,8-triazaacenaphthylene-2-carboxamide] — lower, 5.9
- C=CC(=O)N1CCC[C@@H](NC(=O)c2sc3nccc4c3c2NC(=O)N4c2ccc(Oc3cccnc3C)cc2)C1 [Example 771, (R)—N-(1-Acryloylpiperidin-3-yl)-5-(4-((2-methylpyridin-3-yl)oxy)phenyl)-4-oxo-4,5-dihydro-3H-1-thia-3,5,8-triazaacenaphthylene-2-carboxamide] — higher, 7.4
- Cc1cc(Oc2ccccc2)ccc1N1C(=O)Nc2c(C(=O)NC3CCN(C)CC3)sc3nccc1c23 [Example 858, 5-(2-Methyl-4-phenoxyphenyl)-N-(1-methylpiperidin-4-yl)-4-oxo-4,5-dihydro-3H-1-thia-3,5,8-triazaacenaphthylene-2-carboxamide] — higher, 7.5
- C=CC(=O)N1CCC[C@@H](NC(=O)c2sc3nccc4c3c2NC(=O)N4c2ccc(Oc3cccnn3)cc2)C1 [Example 791, (R)—N-(1-Acryloylpiperidin-3-yl)-4-oxo-5-(4-(pyridazin-3-yloxy)phenyl)-4,5-dihydro-3H-1-thia-3,5,8-triazaacenaphthylene-2-carboxamide] — higher, 6.6
- O=C(N[C@@H]1CCCNC1)c1sc2nccc3c2c1NC(=O)N3c1cccc(OC2CCCCC2)c1 [Example 616, (R)-5-(3-(Cyclohexyloxy)phenyl)-4-oxo-N-(piperidin-3-yl)-4,5-dihydro-3H-1-thia-3,5,8-triazaacenaphthylene-2-carboxamide] — lower, 6.1
- C=CC(=O)N1CC[C@@H](NC(=O)c2sc3nccc4c3c2NC(=O)N4c2cccc(C(C)C)c2)C1 [Example 705, (R)—N-(1-Acryloylpyrrolidin-3-yl)-5-(3-isopropylphenyl)-4-oxo-4,5-dihydro-3H-1-thia-3,5,8-triazaacenaphthylene-2-carboxamide] — higher, 6.7
- O=C(N[C@@H]1CCNC1)c1sc2nccc3c2c1NC(=O)N3c1ccnc(-c2ccccc2)c1 [Example 602, (R)-4-Oxo-5-(2-phenylpyridin-4-yl)-N-(pyrrolidin-3-yl)-4,5-dihydro-3H-1-thia-3,5,8-triazaacenaphthylene-2-carboxamide] — within 0.2 log units, 6.4

With `CC(=O)N1CCC[C@@H](NC(=O)c2sc3nccc4c3c2NC(=O)N4c2ccc(Oc3cccnn3)cc2C)C1` [Example 810, (R)—N-(1-Acetylpiperidin-3-yl)-5-(2-methyl-4-(pyridazin-3-yloxy)phenyl)-4-oxo-4,5-dihydro-3H-1-thia-3,5,8-triazaacenaphthylene-2-carboxamide] the “BTK_I_binding pIC50” value was <6.

Same assay, conditions: Lanthascreen tracer competition, 60 minutes incubation; pIC50 = negative log of the IC50 in molar; read-out: BTK_I_binding pIC50 (converted)

`Cc1cc(Oc2ccccc2)ccc1N1C(=O)Nc2c(C(=O)NC3CCCN(C(=O)CC#N)C3)sc3nccc1c23` (stereo in doubt) [Example 874, (R)—N-(1-(2-cyanoacetyl)piperidin-3-yl)-5-(2-methyl-4-phenoxyphenyl)-4-oxo-4,5-dihydro-3H-1-thia-3,5,8-triazaacenaphthylene-2-carboxamide] gave an IC50 of 63.1 nM.

Same assay, conditions: pIC50 = negative log of the IC50 in molar; 60 minutes incubation, 50 nM Tracer 236

Point of comparison: `C=CC(=O)N1CCC[C@@H](NC(=O)c2sc3nccc4c3c2NC(=O)N4c2ccc(F)cc2)C1` [Example 255, (R)—N-(1-Acryloylpiperidin-3-yl)-5-(4-fluorophenyl)-4-oxo-4,5-dihydro-3H-1-thia-3,5,8-triazaacenaphthylene-2-carboxamide], “BTK_I_binding pIC50” value 6.6. Against it:
- Cc1cc(Oc2ccccc2)ccc1N1C(=O)Nc2c(C(=O)NC[C@@H]3CCCN3C)sc3nccc1c23 [Example 265, (S)-5-(2-Methyl-4-phenoxyphenyl)-N-((1-methylpyrrolidin-2-yl)methyl)-4-oxo-4,5-dihydro-3H-1-thia-3,5,8-triazaacenaphthylene-2-carboxamide] — lower, 6.4
- C=CC(=O)N1CC(NC(=O)c2sc3nccc4c3c2NC(=O)N4c2ccc(Oc3ccccc3)cc2C)C1 [Example 109, N-(1-Acryloylazetidin-3-yl)-5-(2-methyl-4-phenoxyphenyl)-4-oxo-4,5-dihydro-3H-1-thia-3,5,8-triazaacenaphthylene-2-carboxamide] — higher, 7.2
- Cc1cc(Oc2ccccc2)ccc1N1C(=O)Nc2c(C(=O)N[C@H]3CNC[C@H]3O)sc3nccc1c23 [Example 241, N-((3S,4R)-4-hydroxypyrrolidin-3-yl)-5-(2-methyl-4-phenoxyphenyl)-4-oxo-4,5-dihydro-3H-1-thia-3,5,8-triazaacenaphthylene-2-carboxamide] — within 0.2 log units, 6.7
- C=CC(=O)N1CC[C@@H](NC(=O)c2sc3nccc4c3c2NC(=O)N4c2ccc(OC3CCCCC3)cc2C)C1 [Example 39, (R)—N-(1-Acryloylpyrrolidin-3-yl)-5-(4-(cyclohexyloxy)-2-methylphenyl)-4-oxo-4,5-dihydro-3H-1-thia-3,5,8-triazaacenaphthylene-2-carboxamide] — higher, 7.4
- Cc1cc(Oc2ccccc2)ccc1N1C(=O)Nc2c(C(=O)N[C@@H]3CCCN(C(=O)C4COC4)C3)sc3nccc1c23 [Example 136, (R)-5-(2-Methyl-4-phenoxyphenyl)-N-(1-(oxetane-3-carbonyl)piperidin-3-yl)-4-oxo-4,5-dihydro-3H-1-thia-3,5,8-triazaacenaphthylene-2-carboxamide] — higher, 7.1

Same assay, conditions: pIC50 = negative log of the IC50 in molar; 60 minutes incubation, 50 nM Tracer 236; read-out: BTK_I_binding pIC50 (converted)

`C=CC(=O)N1CCC[C@@H](NC(=O)c2sc3nccc4c3c2NC(=O)N4c2ccc(OC(C)C)cc2C)C1` [Example 33, (R)—N-(1-Acryloylpiperidin-3-yl)-5-(4-isopropoxy-2-methylphenyl)-4-oxo-4,5-dihydro-3H-1-thia-3,5,8-triazaacenaphthylene-2-carboxamide] gave an IC50 of 31.6 nM.

Same assay, conditions: unphosphorylated-BTK kinase domain, 50 nM Tracer 236, 60 minutes; pIC50 = negative log of the IC50 in molar

Point of comparison: `C/C=C\C(=O)N1CCC[C@@H](NC(=O)c2sc3nccc4c3c2NC(=O)N4c2ccc(Oc3ccccc3)cc2C)C1` (single isomer, unassigned) [Example 475, (R,*Z)—N-(1-(But-2-enoyl)piperidin-3-yl)-5-(*R)-(2-methyl-4-phenoxyphenyl)-4-oxo-4,5-dihydro-3H-1-thia-3,5,8-triazaacenaphthylene-2-carboxamide], “BTK_I_binding pIC50” value 6.1. Against it:
- C=CC(=O)N1CCC[C@@H](NCc2sc3nccc4c3c2NC(=O)N4c2ccc(Oc3ccccc3)cc2C)C1 [Example 390, (R)-2-(((1-Acryloylpiperidin-3-yl)amino)methyl)-5-(2-methyl-4-phenoxyphenyl)-3H-1-thia-3,5,8-triazaacenaphthylen-4(5H)-one] — higher, 6.9
- C=CC(=O)N1CCC[C@@H](NC(=O)c2sc3nccc4c3c2NC(=O)N4c2ccc3sccc3c2)C1 [Example 404, (R)—N-(1-Acryloylpiperidin-3-yl)-5-(benzo[b]thiophen-5-yl)-4-oxo-4,5-dihydro-3H-1-thia-3,5,8-triazaacenaphthylene-2-carboxamide] — the same, 6.1
- Cc1cc(OC2CC2)ccc1N1C(=O)Nc2c(C(=O)N[C@@H]3CCCN(C)C3)sc3nccc1c23 [Example 322, (R)-5-(4-Cyclopropoxy-2-methylphenyl)-N-(1-methylpiperidin-3-yl)-4-oxo-4,5-dihydro-3H-1-thia-3,5,8-triazaacenaphthylene-2-carboxamide] — lower, 5.7
- CNC/C=C(\F)C(=O)N1CCC[C@@H](NC(=O)c2sc3nccc4c3c2NC(=O)N4c2ccc(Oc3ccccc3)cc2C)C1 [Example 388, (R,Z)—N-(1-(2-Fluoro-4-(methylamino)but-2-enoyl)piperidin-3-yl)-5-(2-methyl-4-phenoxyphenyl)-4-oxo-4,5-dihydro-3H-1-thia-3,5,8-triazaacenaphthylene-2-carboxamide] — higher, 7.1
- O=C(N[C@H]1CNC[C@@H]1O)c1sc2nccc3c2c1NC(=O)N3c1ccc(Oc2ccccc2)cc1 [Example 464, N-((3S,4S)-4-Hydroxypyrrolidin-3-yl)-4-oxo-5-(4-phenoxyphenyl)-4,5-dihydro-3H-1-thia-3,5,8-triazaacenaphthylene-2-carboxamide] — higher, 6.8
- C=CC(=O)N1CCC[C@@H](NC(=O)c2sc3nccc4c3c2NC(=O)N4c2ccc(-c3ccccc3)cc2)C1 [Example 423, (R)-5-([1,1′-Biphenyl]-4-yl)-N-(1-acryloylpiperidin-3-yl)-4-oxo-4,5-dihydro-3H-1-thia-3,5,8-triazaacenaphthylene-2-carboxamide] — higher, 6.3

Same assay, conditions: unphosphorylated-BTK kinase domain, 60 minutes incubation, 50 nM Tracer 236; pIC50 = negative log of the IC50 in molar

With `O=C(NCCN1CCNCC1)c1sc2nccc3c2c1NC(=O)N3c1ccc(Oc2ccccc2)cc1` [Example 928, 4-Oxo-5-(4-phenoxyphenyl)-N-(2-(piperazin-1-yl)ethyl)-4,5-dihydro-3H-1-thia-3,5,8-triazaacenaphthylene-2-carboxamide] the “BTK_I_binding pIC50” value was 6.2.
